The record followed here is ChEMBL document CHEMBL1201862, “PubChem BioAssay data set” (2004).

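Each compound was tested at five concentrations against cells in 96-well plates for 48 hours. Abbreviation: GI50, concentration required for 50% inhibition of growth.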 Active and inactive are the calls of the source. No stated cut-off is given here; in the data, active = GI50 up to about 1.1 µM and inactive = higher. A value given as a limit tells only on which side of the number the result lay.

Test systems include K562; UO-31; SF-268; MOLT-4; NCI-H522; M14; SNB-19; MDA-N; HCC 2998; IGROV-1; SNB-75; HCT-15; TK-10; OVCAR-3; SF-295; RXF 393; OVCAR-8; SK-MEL-2; CAKI-1; MCF7.
Holding throughout (assay): NCI tumour cell line growth inhibition, 48 h

As for `C/C(=N\NC(=S)NCCNC(=S)N/N=C(\C)c1ccccn1)c1ccccn1`, the GI50 was 3.17 µM (inactive) with K562; 1.43 µM (inactive) in the experiment with UO-31; 1.9 µM (inactive) in the experiment with SF-268; 2.15 µM (inactive) in the experiment on MOLT-4; 6.04 µM (inactive) in the experiment on NCI-H522; 1.5 µM (inactive) with M14. Further, the GI50 is 9.46 µM (inactive) in the experiment on SNB-19; 4.51 µM (inactive) in the experiment with MDA-N; 7.28 µM (inactive) in the experiment with HCC 2998; 2.07 µM (inactive) in the experiment with IGROV-1; 1.73 µM (inactive) in the experiment on SNB-75; 1.84 µM with HCT-15. Also, the GI50 was 1.04 µM (active) in the experiment on TK-10; 2.74 µM (inactive) with OVCAR-3; 3.45 µM (inactive) in the experiment with SF-295; 3.16 µM (inactive) with RXF 393; 1.56 µM (inactive) in the experiment with OVCAR-8; 1.82 µM (inactive) with SK-MEL-2. For the same compound, the GI50 with CAKI-1 was 3.42 µM (inactive); with MCF7, 4.39 µM (inactive).

Turning to `CC1=NN(C(=O)CC(=O)Nc2ccc(C)cc2)C(=O)C1/N=N\c1ccc(S(=O)(=O)c2ccc(/N=N/C3C(=O)N(C(=O)CC(=O)Nc4ccc(C)cc4)N=C3C)cc2)cc1` (configuration not stated), the GI50 in the experiment on K562 is 4.98 µM (inactive); in the experiment on UO-31, > 100 µM (inactive); with SF-268, > 100 µM (inactive); in the experiment on MOLT-4, 42.5 µM (inactive); in the experiment with NCI-H522, 23.3 µM (inactive); in the experiment with M14, 38 µM (inactive). For the same compound, the GI50 with SNB-19 was > 100 µM (inactive); with MDA-N it was 69.7 µM (inactive); with HCC 2998, 83.6 µM (inactive); in the experiment on IGROV-1, 28.4 µM (inactive); in the experiment with SNB-75 it was > 100 µM (inactive); with HCT-15, 44.6 µM. Besides, the GI50 in the experiment with TK-10 is > 100 µM (inactive); in the experiment with OVCAR-3 it was 64.6 µM (inactive); in the experiment on SF-295 it was > 100 µM (inactive); with RXF 393 it was > 100 µM (inactive); in the experiment on OVCAR-8 it was 64.6 µM (inactive); in the experiment with SK-MEL-2, 58.6 µM (inactive). For the same compound, the GI50 in the experiment on CAKI-1 and with MCF7 was > 100 µM (inactive) in each case.

For `CN(CC(=O)O)CC(=O)O`, the GI50 in the experiment on K562, in the experiment on UO-31, with SF-268, with MOLT-4, in the experiment on NCI-H522 and in the experiment with M14 was > 100 µM (inactive) each time. For the same compound, the GI50 was > 100 µM (inactive) in the experiment on SNB-19; > 100 µM (inactive) in the experiment with MDA-N; > 100 µM (inactive) in the experiment on HCC 2998; > 100 µM (inactive) in the experiment on IGROV-1; 0.427 µM (active) in the experiment with SNB-75; greater than 100 µM in the experiment on HCT-15. Also, the GI50 in the experiment on TK-10, in the experiment on OVCAR-3, in the experiment on SF-295, in the experiment on RXF 393, in the experiment on OVCAR-8 and with SK-MEL-2 was > 100 µM (inactive) throughout. Besides, the GI50 in the experiment on CAKI-1 and with MCF7 was > 100 µM (inactive) each time.

For `C/C1=C\CC[C@@]2(C)O[C@@H]2C[C@@H]2[C@H](C/C(C)=C/CC1)OC(=O)C21CC1`, the GI50 with K562 was 21 µM (inactive); in the experiment with UO-31, 92.3 µM (inactive); in the experiment with SF-268, > 100 µM (inactive); in the experiment with MOLT-4 it was 21.7 µM (inactive); in the experiment with M14 it was > 100 µM (inactive); with SNB-19 it was > 100 µM (inactive). Besides, the GI50 in the experiment with MDA-N was 91.4 µM (inactive); in the experiment on HCC 2998, > 100 µM (inactive); in the experiment on IGROV-1, 23.3 µM (inactive); with SNB-75, > 100 µM (inactive); in the experiment with HCT-15, 27.7 µM; with TK-10, > 100 µM (inactive). Also, the GI50 in the experiment on OVCAR-3, in the experiment on SF-295, in the experiment on RXF 393, in the experiment with OVCAR-8, in the experiment on SK-MEL-2 and in the experiment with CAKI-1 was > 100 µM (inactive) each time. For the same compound, the GI50 in the experiment with MCF7 is 53.5 µM (inactive).

For the compound `CCOC(=O)C(NC(=O)c1ccco1)(Nc1nc2ccc(OCC)cc2s1)C(F)(F)F` (configuration not stated), the GI50 was 27.6 µM (inactive) in the experiment on K562; 4.22 µM (inactive) in the experiment on UO-31; 41.2 µM (inactive) in the experiment with SF-268; 20.1 µM (inactive) in the experiment on MOLT-4; 21.2 µM (inactive) in the experiment on NCI-H522; 32.6 µM (inactive) in the experiment on M14. Also, the GI50 in the experiment on SNB-19 was 51.4 µM (inactive); in the experiment on MDA-N it was 21.6 µM (inactive); in the experiment on HCC 2998, 33.5 µM (inactive); in the experiment on SNB-75 it was 19.8 µM (inactive); with HCT-15, 22.9 µM; in the experiment with TK-10 it was 50.1 µM (inactive). The GI50 in the experiment on OVCAR-3 is 44.9 µM (inactive); in the experiment with SF-295, 43.1 µM (inactive); in the experiment with RXF 393, 7.82 µM (inactive); in the experiment on OVCAR-8, 43.9 µM (inactive); with SK-MEL-2 it was 32.7 µM (inactive); with CAKI-1, 17.3 µM (inactive). The GI50 in the experiment with MCF7 was 25.4 µM (inactive).

With `CCCCN1C(=O)N(c2ccc(OCC)cc2)C2N(CCCC)C1C(C)(C)C2(C)C` (configuration not stated), the GI50 with UO-31 was 27.1 µM (inactive); in the experiment with SF-268 it was 21.9 µM (inactive); in the experiment with NCI-H522 it was 44.1 µM (inactive); in the experiment on M14 it was 25.1 µM (inactive); in the experiment with SNB-19, 35.6 µM (inactive); with MDA-N, 22 µM (inactive). In addition, the GI50 in the experiment on HCC 2998 was 51.3 µM (inactive); in the experiment with IGROV-1, 33.6 µM (inactive); with SNB-75, 37.3 µM (inactive); with HCT-15, 26.6 µM; in the experiment on TK-10 it was 22.5 µM (inactive); in the experiment with OVCAR-3, 15.7 µM (inactive). Besides, the GI50 with SF-295 is 47.4 µM (inactive); with RXF 393, 16.3 µM (inactive); with OVCAR-8, 32.3 µM (inactive); in the experiment on SK-MEL-2, 31.6 µM (inactive); with CAKI-1 it was 26.3 µM (inactive); with MCF7, 15.3 µM (inactive).

Regarding `O=C(CCNC(=O)OCc1ccccc1)OCCCNC(=O)OCc1ccccc1`, the GI50 with K562, in the experiment on UO-31, with SF-268, in the experiment on MOLT-4, with NCI-H522 and with M14 was > 100 µM (inactive) throughout. For the same compound, the GI50 was > 100 µM (inactive) in the experiment on SNB-19; > 100 µM (inactive) in the experiment with MDA-N; > 100 µM (inactive) in the experiment with HCC 2998; > 100 µM (inactive) in the experiment on IGROV-1; 50.8 µM (inactive) in the experiment with SNB-75; greater than 100 µM with HCT-15. Further, the GI50 in the experiment on TK-10, with OVCAR-3, with SF-295, with RXF 393, in the experiment on OVCAR-8 and in the experiment on MCF7 was > 100 µM (inactive) throughout.

As to `Nc1nc(=O)n(C2CC(O)C(CO)O2)c2nc(-c3ccc(-c4ccccc4)cc3)cnc12` (configuration not stated), the GI50 in the experiment on K562 is 38 µM (inactive); in the experiment with UO-31 it was > 100 µM (inactive); with SF-268 it was 30.7 µM (inactive); with MOLT-4 it was 25.9 µM (inactive); in the experiment with NCI-H522, 22.1 µM (inactive); with M14, > 100 µM (inactive). Moreover, the GI50 in the experiment with SNB-19 is 29 µM (inactive); in the experiment with MDA-N, 58.2 µM (inactive); in the experiment on HCC 2998, 41.9 µM (inactive); in the experiment on IGROV-1, > 100 µM (inactive); with SNB-75, 23 µM (inactive); in the experiment on HCT-15, greater than 100 µM. Besides, the GI50 in the experiment on TK-10 was > 100 µM (inactive); in the experiment on SF-295 it was 48.5 µM (inactive); with RXF 393, 31.2 µM (inactive); with OVCAR-8 it was 67.9 µM (inactive); in the experiment on SK-MEL-2 it was 44.6 µM (inactive); in the experiment on CAKI-1, > 100 µM (inactive). For the same compound, the GI50 in the experiment on MCF7 was 15.5 µM (inactive).

`C=CC(C)(C)C(=C)C(=O)Nc1ccccc1I`: the GI50 in the experiment on K562, in the experiment with UO-31, in the experiment on SF-268, in the experiment with M14, with SNB-19 and in the experiment on MDA-N was > 100 µM (inactive) throughout. The GI50 with HCC 2998 was > 100 µM (inactive); in the experiment on SNB-75, > 100 µM (inactive); with HCT-15 it was greater than 100 µM; in the experiment with OVCAR-3 it was > 100 µM (inactive); in the experiment with SF-295 it was > 100 µM (inactive); in the experiment with RXF 393, > 100 µM (inactive). In addition, the GI50 in the experiment on OVCAR-8, in the experiment with SK-MEL-2, with CAKI-1 and with MCF7 was > 100 µM (inactive) each time.

For `CC(=O)Oc1ccc2c3c1[C@H]1O[C@H]1c1cccc(c1-3)[C@@H]1O[C@H]21`, the GI50 with K562 is 5.02 µM (inactive); in the experiment on UO-31 it was 3.74 µM (inactive); with SF-268 it was 5.62 µM (inactive); with MOLT-4, 18.5 µM (inactive); with NCI-H522, 1.9 µM (inactive); in the experiment on M14, 4.81 µM (inactive). Also, the GI50 was 15.8 µM (inactive) in the experiment with SNB-19; 6.87 µM (inactive) in the experiment on MDA-N; 7.78 µM (inactive) in the experiment with HCC 2998; 4.13 µM (inactive) with SNB-75; 5 µM with HCT-15; 13.9 µM (inactive) with TK-10. The GI50 with OVCAR-3 is 3.18 µM (inactive); with SF-295, 10 µM (inactive); with RXF 393, 0.409 µM (active); in the experiment with OVCAR-8 it was 4.22 µM (inactive); in the experiment on SK-MEL-2, 9.55 µM (inactive); with CAKI-1, 3.22 µM (inactive). For the same compound, the GI50 in the experiment on MCF7 was 18.4 µM (inactive).

Take `N#Cc1c(N)nc(S)c(C#N)c1-c1ccccc1`: the GI50 with K562 is > 100 µM (inactive); with UO-31 it was 52.8 µM (inactive); with SF-268, > 100 µM (inactive); in the experiment on MOLT-4 it was > 100 µM (inactive); with NCI-H522 it was 47.3 µM (inactive); with SNB-19, > 100 µM (inactive). Further, the GI50 was > 100 µM (inactive) in the experiment on MDA-N; > 100 µM (inactive) in the experiment with HCC 2998; > 100 µM (inactive) in the experiment on IGROV-1; 58.3 µM (inactive) with SNB-75; greater than 100 µM with HCT-15; > 100 µM (inactive) in the experiment on TK-10. The GI50 in the experiment on OVCAR-3 is > 100 µM (inactive); in the experiment with SF-295 it was > 100 µM (inactive); in the experiment on RXF 393, > 100 µM (inactive); in the experiment on OVCAR-8, > 100 µM (inactive); in the experiment on SK-MEL-2, 82.4 µM (inactive); in the experiment with CAKI-1, 88.1 µM (inactive). For the same compound, in the experiment with MCF7, the GI50 is > 100 µM (inactive).
